Assay results from PubChem BioAssay (NCI).
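The compound was tested at five concentrations on cells cultured in 96-well plates, with a 48-hour exposure period. At the GI50, growth is halved. TGI: total growth inhibition.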

How the values were obtained:
Test in all cases: DTP human tumour cell line panel, 48 h
SW-620 colon = tested on: SW-620 colon
NCI-H460 lung = tested on: NCI-H460 lung
HL-60(TB) leukemia = tested on: HL-60(TB) leukemia
HCT-15 colon = tested on: HCT-15 colon
ACHN renal = tested on: ACHN renal
SF-268 CNS = tested on: SF-268 CNS
IGROV1 ovarian = tested on: IGROV1 ovarian
NCI/ADR-RES ovarian = tested on: NCI/ADR-RES ovarian
HOP-62 NSCLC = tested on: HOP-62 NSCLC
U251 CNS = tested on: U251 CNS
SNB-75 CNS = tested on: SNB-75 CNS
K-562 leukemia = tested on: K-562 leukemia
MALME-3M melanoma = tested on: MALME-3M melanoma
SF-295 CNS = tested on: SF-295 CNS
SF-539 CNS = tested on: SF-539 CNS
HCC-2998 colon = tested on: HCC-2998 colon
HS 578T breast = tested on: HS 578T breast
SK-MEL-5 melanoma = tested on: SK-MEL-5 melanoma
SK-MEL-28 melanoma = tested on: SK-MEL-28 melanoma
OVCAR-8 ovarian = tested on: OVCAR-8 ovarian
CCRF-CEM leukemia = tested on: CCRF-CEM leukemia
NCI-H23 lung = tested on: NCI-H23 lung
MDA-MB-468 breast = tested on: MDA-MB-468 breast
MDA-MB-231 breast = tested on: MDA-MB-231 breast
NCI-H226 lung = tested on: NCI-H226 lung
A549 NSCLC = tested on: A549 NSCLC
786-0 renal = tested on: 786-0 renal
HCT-116 colon = tested on: HCT-116 colon
OVCAR-3 ovarian = tested on: OVCAR-3 ovarian
BT-549 breast = tested on: BT-549 breast
RXF 393 renal = tested on: RXF 393 renal
UO-31 renal = tested on: UO-31 renal
HOP-92 NSCLC = tested on: HOP-92 NSCLC
OVCAR-4 ovarian = tested on: OVCAR-4 ovarian
COLO 205 colon = tested on: COLO 205 colon
UACC-257 melanoma = tested on: UACC-257 melanoma
HT29 colon = tested on: HT29 colon
SNB-19 CNS = tested on: SNB-19 CNS
EKVX NSCLC = tested on: EKVX NSCLC
DU-145 prostate = tested on: DU-145 prostate
T-47D breast = tested on: T-47D breast
PC-3 prostate = tested on: PC-3 prostate
NCI-H522 lung = tested on: NCI-H522 lung
CAKI-1 renal = tested on: CAKI-1 renal
MOLT-4 leukemia = tested on: MOLT-4 leukemia
OVCAR-5 ovarian = tested on: OVCAR-5 ovarian
SN12C renal = tested on: SN12C renal
LOX IMVI melanoma = tested on: LOX IMVI melanoma
MCF7 breast = tested on: MCF7 breast
UACC-62 melanoma = tested on: UACC-62 melanoma
MDA-MB-435 = tested on: MDA-MB-435
TK-10 renal = tested on: TK-10 renal
A498 renal = tested on: A498 renal
KM12 colon = tested on: KM12 colon
SK-MEL-2 melanoma = tested on: SK-MEL-2 melanoma
SK-OV-3 ovarian = tested on: SK-OV-3 ovarian
RPMI-8226 leukemia = tested on: RPMI-8226 leukemia

N/C(=N\c1nc2ccccc2s1)NC(=O)Nc1ccccc1[N+](=O)[O-]
GI50 (SW-620 colon): 52.9 nM
TGI (SW-620 colon): 19500 nM
GI50 (NCI-H460 lung): 56.8 nM
TGI (NCI-H460 lung): 6760 nM
GI50 (HL-60(TB) leukemia): 34.1 nM
TGI (HL-60(TB) leukemia): > 100000 nM
GI50 (HCT-15 colon): 48.2 nM
TGI (HCT-15 colon): 11300 nM
GI50 (ACHN renal): 111 nM
TGI (ACHN renal): 16300 nM
GI50 (SF-268 CNS): 2360 nM
TGI (SF-268 CNS): 36800 nM
GI50 (IGROV1 ovarian): 108 nM
TGI (IGROV1 ovarian): 12700 nM
GI50 (NCI/ADR-RES ovarian): 45 nM
TGI (NCI/ADR-RES ovarian): 345 nM
GI50 (HOP-62 NSCLC): 104 nM
TGI (HOP-62 NSCLC): 19600 nM
GI50 (U251 CNS): 55.5 nM
TGI (U251 CNS): 14000 nM
GI50 (SNB-75 CNS): 36.3 nM
TGI (SNB-75 CNS): 12500 nM
GI50 (K-562 leukemia): 42.4 nM
TGI (K-562 leukemia): > 100000 nM
GI50 (MALME-3M melanoma): 103 nM
TGI (MALME-3M melanoma): 16700 nM
GI50 (SF-295 CNS): 55 nM
TGI (SF-295 CNS): 10800 nM
GI50 (SF-539 CNS): 39.9 nM
TGI (SF-539 CNS): 273 nM
GI50 (HCC-2998 colon): 203 nM
TGI (HCC-2998 colon): 6100 nM
GI50 (HS 578T breast): 61.5 nM
TGI (HS 578T breast): 18700 nM
GI50 (SK-MEL-5 melanoma): 52.7 nM
TGI (SK-MEL-5 melanoma): 1590 nM
GI50 (SK-MEL-28 melanoma): 1200 nM
TGI (SK-MEL-28 melanoma): 20600 nM
GI50 (OVCAR-8 ovarian): 201 nM
TGI (OVCAR-8 ovarian): 9440 nM
GI50 (CCRF-CEM leukemia): 55.5 nM
TGI (CCRF-CEM leukemia): 16600 nM
GI50 (NCI-H23 lung): 266 nM
TGI (NCI-H23 lung): 16800 nM
GI50 (MDA-MB-468 breast): 228 nM
TGI (MDA-MB-468 breast): 573 nM
GI50 (MDA-MB-231 breast): 139 nM
TGI (MDA-MB-231 breast): 4660 nM
GI50 (NCI-H226 lung): 571 nM
TGI (NCI-H226 lung): 9260 nM
GI50 (A549 NSCLC): 346 nM
TGI (A549 NSCLC): 16900 nM
GI50 (786-0 renal): 186 nM
TGI (786-0 renal): 13600 nM
GI50 (HCT-116 colon): 43.1 nM
TGI (HCT-116 colon): 6060 nM
GI50 (OVCAR-3 ovarian): 51.4 nM
TGI (OVCAR-3 ovarian): 9130 nM
GI50 (BT-549 breast): 202 nM
TGI (BT-549 breast): 6560 nM
GI50 (RXF 393 renal): 47.2 nM
TGI (RXF 393 renal): 499 nM
GI50 (UO-31 renal): 244 nM
TGI (UO-31 renal): 17100 nM
GI50 (HOP-92 NSCLC): 4580 nM
TGI (HOP-92 NSCLC): 26300 nM
GI50 (OVCAR-4 ovarian): 8070 nM
TGI (OVCAR-4 ovarian): 42500 nM
GI50 (COLO 205 colon): 169 nM
TGI (COLO 205 colon): 781 nM
GI50 (UACC-257 melanoma): 12200 nM
TGI (UACC-257 melanoma): 25000 nM
GI50 (HT29 colon): 62.1 nM
TGI (HT29 colon): 645 nM
GI50 (SNB-19 CNS): 151 nM
TGI (SNB-19 CNS): 19600 nM
GI50 (EKVX NSCLC): 248 nM
TGI (EKVX NSCLC): 17900 nM
GI50 (DU-145 prostate): 327 nM
TGI (DU-145 prostate): 13400 nM
GI50 (T-47D breast): 538 nM
TGI (T-47D breast): 25700 nM
GI50 (PC-3 prostate): 143 nM
TGI (PC-3 prostate): 28800 nM
GI50 (NCI-H522 lung): 33 nM
TGI (NCI-H522 lung): 363 nM
GI50 (CAKI-1 renal): 63.5 nM
TGI (CAKI-1 renal): 16100 nM
GI50 (MOLT-4 leukemia): 195 nM
TGI (MOLT-4 leukemia): > 51300 nM
GI50 (OVCAR-5 ovarian): 376 nM
TGI (OVCAR-5 ovarian): 13100 nM
GI50 (SN12C renal): 258 nM
TGI (SN12C renal): 12700 nM
GI50 (LOX IMVI melanoma): 69.8 nM
TGI (LOX IMVI melanoma): 11600 nM
GI50 (MCF7 breast): 168 nM
TGI (MCF7 breast): 12600 nM
GI50 (UACC-62 melanoma): 45.9 nM
TGI (UACC-62 melanoma): 14000 nM
GI50 (MDA-MB-435): 24.2 nM
TGI (MDA-MB-435): 72.8 nM
GI50 (TK-10 renal): 12900 nM
TGI (TK-10 renal): 28400 nM
GI50 (A498 renal): 17200 nM
TGI (A498 renal): 32800 nM
GI50 (KM12 colon): 60.5 nM
TGI (KM12 colon): 14000 nM
GI50 (SK-MEL-2 melanoma): 32.9 nM
TGI (SK-MEL-2 melanoma): 3020 nM
GI50 (SK-OV-3 ovarian): 236 nM
TGI (SK-OV-3 ovarian): 31100 nM
GI50 (RPMI-8226 leukemia): 341 nM
TGI (RPMI-8226 leukemia): > 59900 nM
